From the supplement of paper PMC10307832

Assays:
Test in all cases: relative viability (nuclei count vs DMSO), 5 days (fraction); higher = more cells survive
[1] = compound: CCOC1=CC=CC=C1N=NC2=C(NN(C2=O)C3=NC(=CS3)C4=CC=CC=C4)C [BAM7] + O=C(CCCCCCC(=O)Nc1ccccc1)NO [Vorinostat] (partner 1 µM)
Method in brief: (§1)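 Medians of duplicate plates are given as relative viability. That measure is the nuclei count in treated wells divided by the count in vehicle wells. Counts were taken on 4× images of lung cancer cell lines in 1536-well plates, 5 days after pin-tool dosing the day after seeding with one drug alone or a fixed anchor-drug dose plus five library-drug doses (not always all listed) in √10 steps.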

[2] = compound: CCn1c(-c2nonc2N)nc2c(C#CC(C)(C)O)ncc(OC[C@H]3CCCNC3)c21 + N=C(N)NC(=N)NCCc1ccccc1 [Phenformin] (partner 250 µM)
Method in brief: as §1

[3] = compound: CCn1c(-c2nonc2N)nc2c(C#CC(C)(C)O)ncc(OC[C@H]3CCCNC3)c21 + NC(=O)Nc1cc(-c2cccc(F)c2)sc1C(=O)N[C@H]1CCCNC1 [AZD7762] (partner 0.2 µM)
Method in brief: as §1

[4] = compound: CCOC1=CC=CC=C1N=NC2=C(NN(C2=O)C3=NC(=CS3)C4=CC=CC=C4)C [BAM7] + CC(C)C[C@H](NC(=O)[C@H](Cc1ccccc1)NC(=O)c1cnccn1)B(O)O [Bortezomib] (partner 0.002 µM)
Method in brief: as §1

Row | Cell Line | relative viability ([1]; first compound 5 µM) | relative viability ([1]; first compound 50 µM) | relative viability ([2]; first compound 0.01 µM) | relative viability ([2]; first compound 0.03162 µM) | relative viability ([2]; first compound 0.1 µM) | relative viability ([2]; first compound 0.3162 µM) | relative viability ([2]; first compound 1 µM) | relative viability ([3]; first compound 0.01 µM) | relative viability ([3]; first compound 0.03162 µM) | relative viability ([3]; first compound 0.1 µM) | relative viability ([3]; first compound 0.3162 µM) | relative viability ([3]; first compound 1 µM) | relative viability ([4]; first compound 0.5 µM) | relative viability ([4]; first compound 5 µM) | relative viability ([4]; first compound 15.81 µM) | relative viability ([4]; first compound 50 µM) | relative viability ([1]; first compound 0.5 µM) | relative viability ([1]; first compound 15.81 µM)
1 | SW 900 | 0.461 | 0.589 | 0.505 | 0.621 | 0.671 | 0.601 | 0.49 | 0.656 | 0.659 | 0.712 | 0.575 | 0.56 |  |  |  |  |  | 
2 | NCI-H838 | 0.776 | 0.673 | 0.564 | 0.557 | 0.685 | 0.521 | 0.583 | 0.957 | 1.02 | 0.988 | 0.855 | 0.9 | 0.771 | 0.961 | 0.631 | 1.1 | 0.741 | 0.723
3 | NCI-H1648 | 0.6 | 0.348 |  |  |  |  |  | 0.601 | 0.728 | 0.615 | 0.686 | 0.673 |  |  |  |  | 0.283 | 0.408
4 | A549 |  |  | 0.197 | 0.212 | 0.164 | 0.17 | 0.154 |  |  |  |  |  |  |  |  |  |  | 
5 | A-427 | 0.876 | 0.852 | 0.315 | 0.387 | 0.263 | 0.339 | 0.326 | 0.701 | 0.767 | 0.747 | 0.696 | 0.777 | 0.965 | 0.978 | 0.893 | 1.04 | 0.829 | 0.834
6 | NCI-H1792 |  |  | 0.203 | 0.291 | 0.258 | 0.262 | 0.299 | 0.761 | 1.01 | 0.794 | 0.612 | 0.602 | 1.09 | 1.06 | 0.97 | 0.957 |  | 
7 | LCLC-97TM1 | 0.878 | 0.763 | 0.375 | 0.49 | 0.444 | 0.435 | 0.427 | 0.279 | 0.269 | 0.206 | 0.292 | 0.294 | 0.721 | 0.608 | 0.898 | 0.76 | 0.941 | 
8 | NCI-H1703 |  |  |  |  |  |  |  |  | 0.123 |  | 0.0983 | 0.113 | 0.428 | 0.304 | 0.164 | 0.338 |  | 
9 | SK-LU-1 | 0.901 | 0.847 | 0.552 | 0.575 | 0.455 | 0.48 | 0.537 |  |  |  |  |  | 1.18 | 1.46 | 1.3 | 1.39 | 0.83 | 0.784
10 | COR-L 105 | 0.952 | 0.906 | 0.407 | 0.516 | 0.468 | 0.417 | 0.463 |  |  |  |  |  | 0.747 | 0.831 | 0.854 | 1.03 | 0.889 | 0.895
11 | Calu-6 |  |  |  |  |  |  |  |  |  |  |  |  | 0.969 | 0.986 | 0.94 | 1.01 |  | 
12 | NCI-H358 | 0.644 | 0.667 | 0.39 | 0.321 | 0.338 | 0.315 | 0.32 | 0.478 | 0.386 | 0.684 | 0.518 | 0.512 |  |  |  |  |  | 0.528
13 | NCI-H1944 | 0.46 | 0.43 | 0.196 | 0.196 | 0.207 | 0.181 | 0.196 | 0.682 | 0.47 | 0.596 | 0.513 | 0.654 |  |  |  |  | 0.521 | 0.396
14 | NCI-H2342 | 0.736 | 0.8 | 0.532 | 0.627 | 0.598 | 0.545 | 0.574 | 0.444 | 0.482 | 0.498 | 0.534 | 0.455 |  |  |  |  | 0.72 | 0.709
15 | EBC-1 |  |  |  |  |  |  |  |  |  |  |  |  | 0.497 | 0.503 | 0.531 | 0.574 |  | 
16 | NCI-H1299 |  |  |  |  |  |  |  |  |  |  |  |  | 1.02 | 1.04 | 1.03 | 0.963 |  | 
17 | NCI-H2228 | 0.586 | 0.59 | 0.363 | 0.36 | 0.298 | 0.277 | 0.204 |  |  |  |  |  | 1.31 | 1.31 | 0.798 | 1.21 | 0.448 | 0.552
18 | NCI-H522 | 0.851 | 0.977 | 0.636 | 0.648 | 0.629 | 0.576 | 0.624 | 0.726 | 0.763 | 0.838 | 0.686 | 0.772 |  |  |  |  | 0.911 | 0.963
19 | IA-LM | 1.03 | 0.553 |  |  |  |  |  |  |  |  |  |  | 0.789 | 0.98 | 0.756 | 0.777 | 0.874 | 0.389
20 | SK-MES-1 | 1.06 | 1.04 | 0.654 | 0.642 | 0.66 | 0.617 | 0.673 |  |  |  |  |  |  |  |  |  | 1.04 | 1.05
21 | NCI-H2170 | 0.731 | 0.601 | 0.44 | 0.429 | 0.416 | 0.429 | 0.382 | 0.756 | 0.947 | 0.86 | 0.84 | 0.941 |  |  |  |  | 0.842 | 0.651
22 | SW 1573 | 0.735 | 0.606 | 0.344 | 0.274 | 0.24 | 0.209 | 0.194 |  |  |  |  |  | 0.953 | 1.07 | 1.07 | 0.972 | 0.715 | 1.06
23 | NCI-H661 | 0.843 | 0.774 | 0.277 | 0.259 | 0.265 | 0.145 | 0.239 |  |  |  |  |  | 0.807 | 0.738 | 0.656 | 0.827 | 0.82 | 0.784
24 | NCI-H1793 | 0.715 | 1.08 | 0.339 | 0.436 | 0.371 | 0.331 | 0.401 | 0.45 | 0.716 |  | 0.412 | 0.411 |  |  |  |  | 0.751 | 0.726
25 | NCI-H520 | 0.866 | 0.718 | 0.424 | 0.561 | 0.303 | 0.236 | 0.233 |  |  |  |  |  | 0.625 | 0.75 | 0.441 | 0.708 | 0.801 | 0.702
26 | NCI-H2023 | 0.577 | 0.589 | 0.4 | 0.409 | 0.412 | 0.3 | 0.34 |  |  |  |  |  | 0.988 | 0.905 | 0.92 | 1.08 | 0.635 | 0.605
27 | NCI-H2009 | 0.755 | 0.693 | 0.473 | 0.491 | 0.519 | 0.458 | 0.452 |  |  |  |  |  | 0.976 | 1.29 | 0.926 | 0.971 | 0.67 | 0.706
